Experimental data reported in US11857550B2, “Benzathine analogs” (University of Pittsburgh—Of the Commonwealth System of …, priority 2012, dated 2024).

What was measured:
[1] = tested on: C57BL6 mice; experiment: LPS induced (endotoxin) septic shock model; assay type: in vivo; settings: IP, 10 min before 100 ug LPS IP; blood at 90 min
Procedure: FIG. 11. BC-1215 inhibits cytokine release from in an endotoxin septic shock model. BC-1215 was solubilized in water using acetic acid in a 1:2 molar ratio; the stock solution of BC-1215 was 5 mg/ml. C57BL6 mice were deeply anesthetized with ketamine (80-100 mg/kg intraperitoneally (i.p.) and xylazine (10 mg/kg i.p.). 500 ug, 100 ug, 20 ug, 4 ug and 0.8 ug of BC-1215 was administered to mice through an intraperitoneal (IP) injection. 10 min later, mice were given 100 ug of LPS (E. coli) through an IP injection. 90 min later, mice were euthanized; blood was collected and tested for IL1-β, IL-6 and TNFα assays. (n=3/mice group at each dose)
Compound BC-1215 was first solubilized in water using acetic acid in a 1:2 molar ratio; the stock solution of BC-1215 was 5 mg/ml. 500 ug, 100 ug, 20 ug, 4 ug and 0.8 ug of BC-1215 was administered to mice though an intraperitoneal (IP) injection. 10 min later, mice were given 100 ug of LPS (E. coli) through an IP injection. 90 min later, mice were euthanized; blood was collected and tested for IL1-β, IL-6 and TNFα cytokine assays.

[2] = tested on: human PBMC cells; experiment: LPS-induced IL1β and TNFα cytokine release from PBMC cells (ELISA); assay type: cell-based; settings: LPS-exposed human PBMC
Procedure: FIGS. 20A-20J is a table depicting benzathine compounds, and assay results. PBMC cells (0.6 ml at 1.5*10^6/ml) were treated with 2 ug/ml LPS for 16 hrs along with each compound at different concentrations. IL1β and TNFα cytokine release were monitored by ELISA to calculate the IC50. U937 monocyte (0.6 ml at 1.5*10^6/ml) were treated with each compound at different concentrations for 16 h. Cells were then stained with Trypan blue to differentiate dead cells, and calculate the LD50. Therapeutic index (TI)=LD50/IC50. Compounds marked in red are high value targets (low IC50, high LD50) and require further testing in vivo.
Briefly, compounds were added to human PBMC cells at different concentrations that were exposed to […] and cytokine secretion was monitored by ELISA to determine the IC50. Compounds were also added to U937 monocytes at different concentrations, and cells were stained with trypan blue to determine the LD50. […] Several functional studies were undertaken to assess anti-inflammatory effects focusing on BC-1215.

[3] = tested on: C57BL6 mice; assay type: in vivo; settings: mouse, in vivo
[4] = tested on: PBMC cells; experiment: LPS-treated PBMC human cytokine array; assay type: cell-based; settings: 10 ug/ml compound, 2 ug/ml LPS, 16 hrs
Procedure: FIG. 9. BC-1215 inhibits a broad spectrum of Th1 panel cytokines. PBMC cells (0.6 ml at 1.5*10^6/ml) were treated with 2 ug/ml LPS for 16 his with BC-1215 at 10 ug/ml. Cytokine release was monitored by the human cytokine array (R&D systems).
PBMC cells were treated with 2 ug/ml LPS for 16 hrs along with BC-1215 at 10 ug/ml. Cytokine release was monitored by a human cytokine array (R&D systems). […] These cytokines are tightly linked to the pathogenesis of many pro-inflammatory diseases, some of which have led to the use of blocking cytokine antibodies to reduce disease severity. For example: GM-CSF drives inflammation in rheumatoid arthritis (RA), and currently, GM-CSF blocking antibodies (MOR103) have been tested in Phase 1b/2a trial in patients suffering from RA.

[5] = tested on: C57BL6 mice; experiment: TPA induced ear edema; assay type: in vivo; settings: topical, 8, 40, 200 ug/ear, 18 h after TPA
Procedure: FIGS. 15A-15C. […] FIG. 15A-15C. C57BL6 mice were deeply anesthetized with ketamine (80-100 mg/kg i.p.) and xylazine (10 mg/kg i.p.). 20 μl of ethanol solution of BC-1215 was applied to ears at 8, 40, 200 ug/ear 30 min after TPA administration (2 μg/ear). Comparisons included equal volumes of ethanol (vehicle control). 18 h after TPA administration, mice were euthanized; the thickness of the ear was measured using a micrometer (FIG. 15B). Ear punch biopsies were also taken immediately, weighed and graphed (FIG. 15C).
FIGS. 23A-23D. […] Different dose of BC-1261 was applied to ears of mice at various doses 30 min after TPA administration (2 μg/ear). A. Gross comparisons were made with equal volumes of ethanol as a vehicle control (CON). 18 h after TPA administration, mice were euthanized and the thickness of the ear was measured using a micrometer (B). Autopsy sample were also taken to measure MPO activity (C) and calculate ear edema (D). The data represent n=6 mice/group, *P<0.05 versus TPA.
Topical application of BC-1215 as an anti-inflammatory agent was tested in a model of 12-O-tetradecanoylphorbol-13-acetate (TPA) induced ear edema (Bralley et. al., J Inflamm (LOnd), 2008. 5:p.1). Briefly, 20 μl of an ethanol solution of BC-1215 was applied to ears of mice at 8, 40, and 200 ug/ear for 30 min after TPA administration (2 μg/ear). Comparisons included equal volumes of ethanol (vehicle control). 18 h after TPA administration, mice were euthanized; the thickness of the ear was measured using a micrometer. Ear punch biopsies were also taken immediately, weighed, and graphed.

For `c1ccc(-c2ccc(CNCCNCc3ccc(-c4ccccn4)cc3)cc2)nc1` [BC-1215], the “IC50 IL-1β” value [1] was 1 mg/kg, the “IC50 IL-6” value [1] was 2.5 mg/kg and the “IC50 TNFα” value [1] was 1.2 mg/kg. For the same compound, the “IC50 (cytokine secretion)” value [2] was “high”, the cell infiltrates [3] was “remarkably decreased” and the lavage cell counts [3] was “remarkably decreased”. The lavage protein concentration [3] was “remarkably decreased”, the lung compliance [3] was “increased compliance” and the lung edema [3] was “remarkably decreased”. The lung elastance [3] was “reduced elastance”, the survival [3] was “significantly increased their survival” and the “TH1 panel cytokine release” value [4] was “significantly suppress the majority of the TH1 panel cytokines”. The ear edema [5] was “significantly resolve edema”, the ear thickness [5] was “significantly reduced” and the “ear weight (punch biopsies)” value [5] was “significantly reduced”.
